Data from PMC3463587, “A Series of Beta-Carboline Derivatives Inhibit the Kinase Activity of PLKs” (PLoS ONE, 2012).

Tests used:
[1] = tested on: cyclin B1 protein in HeLa cells; experiment: Cyclin B1 protein level (Western blotting, FACS); type: cell-based, human; details: 1.21 µM, 24 hr
Procedure: As the inhibitory kinase for cyclin-dependent kinase (CDK), Wee1 is one of the substrates of PLK1 and this phosphorylation stimulates Wee1 degradation. We expect that the inhibition of PLK1 impairs the phosphorylation of Wee1, thereby resulting in elevated Wee1 protein levels. To test this possibility, we examined the protein levels of Wee1 in HeLa cells after treatment with 1.21 µM beta-carboline compounds for 24 hr. […] PLK1 also phosphorylates cyclin B1 and this phosphorylation promotes the nuclear localization of cyclin B1 [36]. After treatment with these beta-carboline compounds, a slight increase of cyclin B1 protein was observed (Figure 6B), and this increase could be a consequence of accumulation of cells in G2/M phase. However, the change of cyclin B1 levels is much less significant compared to the increase of Wee1 levels after treatment with these compounds.
HeLa cells were incubated with or without 1.21 µM DH281, DH285 and DH287 for 24 hr. The cells were washed twice with cold 1×PBS and lysed in RAPI buffer (Applygen technologies Inc.) for 30 min and centrifuged at 14,000 rpm for 20 min at 4°C. We separated 15 µl of total protein (1 µg/ µl) with 12% SDS-PAGE gels and transferred the proteins to PVDF membrane. […] The protein bands were detected using ECL System (Piscataway, New Jersey, USA). […]

MG63 cells = experiment: MTT cell proliferation assay, MG63; type: cell-based; details: Homo sapiens, MG-63, 48 hr
Excerpt: (§1) BI2536 was purchased from Selleck (Selleck, USA).

HeLa cells [2] = experiment: MTT cell proliferation assay, HeLa; type: cell-based; details: Homo sapiens, 48 hr
Excerpt: as §1

MRC5 cells = experiment: cells; details: Homo sapiens, MRC5, 48 h, read-out: IC50 MRC5, MTT, 48 hr, non-cancer cells
Procedure: All the beta-carboline derivatives were provided by Xinjiang Huashidan Pharmaceutical Co. Ltd. The culture media and fetal bovine serum (FBS) were purchased from Hyclone (Hyclone Laboratories Inc., USA). […] All the cell lines were obtained from the Cell Culture Centre, Institute of Basic Medical Science, Chinese Academy of Medical Science and incubated at 37°C supplied with 5% CO2. HeLa cells were grown in standard DMEM with 10% FBS.
MRC5, HeLa, HepG2, PC3 and MG63 cells were seeded at 3000–6000 cells/well (200 µl/well) in a 96-well plate and incubated overnight. Then different concentrations of compounds were added into the cell cultures with a final concentration of 0.1% DMSO and incubated for an additional 48 hr. After that, 22 µl MTT solution (5 mg/ml) was added into each well and incubated at 37°C for 4 hr.

PC3 cells = experiment: MTT cell proliferation assay, PC3; type: cell-based; details: Homo sapiens, PC-3, 48 hr
Excerpt: as §1

[3] = tested on: cdc5-2 mutant yeast cells; experiment: Yeast growth inhibition (MIC), cdc5-2 mutant; details: 25°C, 24 hr
Procedure: The Cdc5 kinase is the functional homologue of PLK1 in budding yeast and the incubation of cdc5-2 mutants at 37°C impairs the kinase activity and stops cell growth. […] We also compared the sensitivity of wild-type and cdc5-2 mutant cells to the selected compounds at different concentrations. […] The temperature sensitive cdc5-2 mutants and wild-type strains were used. […] After incubation at 25°C for 24 hr, the growth of the yeast cells was determined by measuring OD600.

HeLa cells [4] = experiment: Immunofluorescence of spindle (anti-α-tubulin); type: cell-based, human; details: 1.21 µM, 24 hr
Excerpt: PLK1 plays a pivotal role in centrosome maturation and spindle formation during mitosis. Thus, the down-regulation of PLK1 activity would prevent centrosome maturation as well as the formation of a bipolar spindle. Anti-α-tubulin antibody was used for immunofluorescence staining in order to examine the spindle structure in cells treated with the beta-carboline compounds.
HeLa cells were collected and then grown onto cover-slips. […] After washed with washing buffer (Beyotime, P0106) for 3 times, the cells were incubated with blocking buffer (Beyotime, P0102) for 60 min. The primary antibody anti-α-tubulin (Abcam) was used at 1∶200 dilutions; H&L (Cy5)-labeled secondary antibody was used at 1∶200 dilutions. The cover-slips were then mounted with PBS:glycerol (1∶1) mounting medium containing DAPI and examined under an inverted confocal microscope. Images were analyzed by the 3D image software Volocity (Improvision).

CDK1/cyclinB(h) = CDK1/cyclinB(h) (Homo sapiens, UniProt P06493); experiment: In vitro kinase assay CDK1/cyclinB (33P-ATP); type: biochemical
Procedure: (§2) The inhibition of PLK1 kinase activity was assessed using the Cyclex PLK1 Assay/Inhibitor Screening Kit (MBL International Corporation, Japan). The kit includes anti-phospho-threonine polyclonal antibody (PPT-07) and peroxidase coupled anti-rabbit IgG antibody as a reporter in a 96-well ELSIA format. Compounds were used at the concentrations from 10^− ^3 to 10^2 µg/ml and the absorbance was determined at 450 nm. A similar protocol was used to determine the kinase inhibition for PLK2, PLK3, Aurora A and Aurora B. The kinase activity of CDK1/cyclinB and CDK2/cyclinE was analyzed in the presence of serially diluted inhibitors. For each reaction, 20 ng of recombinant kinase was used and […] casein from bovine milk (Sigma) was added as the kinase substrate. The kinase reaction buffer contains 8 mM MOPS pH7.0, 0.2 mM EDTA, 0.1 mg/ml histone H1, 10 mM and MgAcetace and [γ^− ^33P-ATP] (500 cpm/pmol). The reaction was initiated by adding the MgATP mix. After incubation for 40 minutes at room temperature, the reaction was stopped by the addition of 3% phosphoric acid solution. We spotted 10 µl of the reaction mixture onto a P30 filtermat and washed three times for 5 min with 75 mM phosphoric acid and once with methanol prior to drying and scintillation counting.

PLK2 = PLK2 (Homo sapiens, UniProt Q9NYY3); experiment: In vitro kinase assay PLK2; type: biochemical
Procedure: as §2

Chain of PLK2 (Q9NYY3 whole entry, species assumed): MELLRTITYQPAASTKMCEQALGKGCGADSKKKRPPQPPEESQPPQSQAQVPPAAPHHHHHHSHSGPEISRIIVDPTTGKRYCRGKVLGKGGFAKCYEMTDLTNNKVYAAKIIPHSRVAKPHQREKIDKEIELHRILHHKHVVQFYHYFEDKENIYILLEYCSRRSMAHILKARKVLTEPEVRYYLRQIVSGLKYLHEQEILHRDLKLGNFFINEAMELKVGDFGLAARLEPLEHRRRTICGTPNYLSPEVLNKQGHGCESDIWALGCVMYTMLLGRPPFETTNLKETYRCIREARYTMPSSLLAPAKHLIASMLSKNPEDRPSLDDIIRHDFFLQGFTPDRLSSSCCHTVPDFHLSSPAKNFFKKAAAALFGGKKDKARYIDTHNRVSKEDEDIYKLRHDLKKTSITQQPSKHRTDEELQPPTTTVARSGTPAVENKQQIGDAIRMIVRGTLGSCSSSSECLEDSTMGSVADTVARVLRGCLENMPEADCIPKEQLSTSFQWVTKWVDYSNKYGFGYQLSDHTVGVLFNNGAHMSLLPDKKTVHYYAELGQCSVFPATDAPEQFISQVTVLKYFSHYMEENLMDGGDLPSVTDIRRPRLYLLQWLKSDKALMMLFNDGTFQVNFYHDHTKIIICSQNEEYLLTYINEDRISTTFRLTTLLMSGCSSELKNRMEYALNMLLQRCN
Chain of CDK1/cyclinB(h) (P06493 whole entry): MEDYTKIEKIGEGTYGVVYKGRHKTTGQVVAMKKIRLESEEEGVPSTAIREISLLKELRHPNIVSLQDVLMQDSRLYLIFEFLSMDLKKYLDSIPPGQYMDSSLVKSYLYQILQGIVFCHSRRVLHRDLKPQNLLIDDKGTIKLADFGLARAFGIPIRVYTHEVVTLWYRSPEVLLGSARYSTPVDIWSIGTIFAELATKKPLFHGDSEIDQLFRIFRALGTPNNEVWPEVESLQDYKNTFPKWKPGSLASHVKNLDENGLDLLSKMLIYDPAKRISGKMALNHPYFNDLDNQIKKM
Chain of CDK1/cyclinB(h) (P14635 whole entry partner): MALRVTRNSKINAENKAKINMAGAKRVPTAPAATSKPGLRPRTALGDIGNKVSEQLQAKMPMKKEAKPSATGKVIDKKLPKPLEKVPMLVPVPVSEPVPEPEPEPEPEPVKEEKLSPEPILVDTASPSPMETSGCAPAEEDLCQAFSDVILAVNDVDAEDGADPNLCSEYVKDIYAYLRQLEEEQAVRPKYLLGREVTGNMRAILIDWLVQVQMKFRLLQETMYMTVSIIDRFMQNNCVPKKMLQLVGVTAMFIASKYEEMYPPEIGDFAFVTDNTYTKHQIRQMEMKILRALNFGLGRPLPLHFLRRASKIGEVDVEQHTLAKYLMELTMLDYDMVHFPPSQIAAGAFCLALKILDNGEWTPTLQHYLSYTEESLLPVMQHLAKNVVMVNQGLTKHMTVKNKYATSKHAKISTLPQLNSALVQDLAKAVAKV

SMILES | cyclin B1 protein level [1] | IC50 (MG63 cells) [nM] | IC50 (HeLa cells [2]) [nM] | IC50 (MRC5 cells) [nM] | IC50 (PC3 cells) [nM] | difference in the MICs, cdc5-2 compared to wild-type cells [3] [fold] | spindle structure (HeLa cells [4]) | IC50 (CDK1/cyclinB(h)) [nM] | IC50 (PLK2) [nM]
Cc1c2c(cc[n+]1Cc1ccccc1)c1ccc(OCc3ccc(F)cc3)cc1n2CCCc1ccccc1 [DH281] | did not show a significant increase of cyclin B1 protein | 1600 ± 150 | 510 ± 80 | 4730 ± 510 | 940 ± 230 | 2 to 4 | induced formation of monopolar spindles | 42100 | 3820
Cc1c2c(cc[n+]1Cc1ccccc1)c1ccc(OCc3ccccc3)cc1n2Cc1ccccc1 [DH287] | did not show a significant increase of cyclin B1 protein | 1790 ± 290 | 1820 ± 150 | 3030 | 2860 ± 190 | 2 to 4 | induced formation of monopolar spindles | 39400 | 4300
